The target in assay [1] is T1, 5-lipoxygenase (Rattus norvegicus, UniProt P12527).
T1 construct: The supernatant is employed as an enzyme solution of a 5-lipoxygenase; endogenous in cells; host or cells: RBL-1 rat basophilic leukemia cells, sonicated, 15,000 rpm supernatant (crude, not purified)
T1 sequence (P12527 1-673): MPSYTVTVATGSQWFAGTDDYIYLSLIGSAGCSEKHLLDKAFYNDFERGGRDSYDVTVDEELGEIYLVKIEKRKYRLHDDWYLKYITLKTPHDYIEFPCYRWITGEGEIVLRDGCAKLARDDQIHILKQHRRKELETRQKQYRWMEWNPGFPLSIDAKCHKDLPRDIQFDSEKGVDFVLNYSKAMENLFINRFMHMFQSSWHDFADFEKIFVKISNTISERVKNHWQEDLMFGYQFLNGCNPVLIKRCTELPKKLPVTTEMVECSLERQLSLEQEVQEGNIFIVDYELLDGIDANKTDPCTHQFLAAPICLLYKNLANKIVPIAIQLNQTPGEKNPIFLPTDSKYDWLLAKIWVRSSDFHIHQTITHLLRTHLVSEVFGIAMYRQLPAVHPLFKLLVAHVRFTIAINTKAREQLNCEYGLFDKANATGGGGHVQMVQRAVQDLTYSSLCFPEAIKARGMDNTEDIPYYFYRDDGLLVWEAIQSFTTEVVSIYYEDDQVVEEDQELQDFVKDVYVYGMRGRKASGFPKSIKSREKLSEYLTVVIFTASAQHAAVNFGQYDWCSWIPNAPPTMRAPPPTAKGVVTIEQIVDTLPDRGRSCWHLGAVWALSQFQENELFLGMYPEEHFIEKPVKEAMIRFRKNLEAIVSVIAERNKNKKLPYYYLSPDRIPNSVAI
Kind of assay: 5-Lipoxygenase-inhibiting activity (Test Example 1, HPLC of 5-HETE). The format is biochemical. The note with it: RBL-1 cell supernatant; 50 μg arachidonic acid; pH 7.4; 37° C., 15 min; HPLC peak of 5-HETE; read-out: 50% Inhibitory concentration. As to the method: A suspension of rat-origin basophilic leukemia cell strain RBL-1 in an Eagle basal medium (manufactured by Gibco Laboratories) containing 10% FCS is cultivated in an 5% CO2 incubator at 37° C. The culture is then centrifuged at 4° C. to collect cells. The cells are re-suspended in a phosphate buffer solution at pH 7.4 to a cell density of 1.0-3.0×10^7 cells/ml. The suspended cells are treated by an ultrasonic cell blender and then centrifuged at 15,000 rpm at 4° C. for 30 min. The supernatant is employed as an enzyme solution of a 5-lipoxygenase. In test tubes are placed 50 μg of arachdonic acid and an isoprenoid derivative of the invention to be tested. To each of the test tubes are added 0.30 ml of phosphate buffer, 0.20 ml of the enzyme solution as prepared above and 5 μl of a 100 mM CaCl2 (calcium chloride) solution. The mixture is allowed to react at 37° C. for 15 min. To the reaction mixture, after ice-cooling, is added one drop of 1N HCl (hydrochloric acid), and the resulting mass is extracted with 2 ml of ethyl acetate. The extract is concentrated to dryness followed by addition of 100 μl of methanol for use as a test specimen.
Said specimen is injected into octadecylsilane (ODS) reverse phase high performance liquid chromatography (HPLC), eluted with methanol - acetonitrile - water - acetic acid (15 : 45 : 35 : 0.01). Peak for 5-HETE (5-(s)-hydroxy-6,8,11,14-eicosatetraenoic acid), a 5-lipoxygenase product detected in approximately 25 min. is measured. The 5-lipoxygenase-inhibiting activity is determined by decrease in the peak for said 5-lipoxygenase product.
(§1) 50% inhibitory concentration as referred to in Tables 1 and 2 means concentration of an isoprenoid derivative required for controlling the production of […] as described above to 50% by introducing said isoprenoid derivative when production of 5-HETE without isoprenoid derivative of the invention is taken as 100%.

Assay [2] has as its system stomach lesions (ulcer index) in male Wistar rats. Description: Anti-ulcer activity (ethanol-hydrochloric acid gastric lesions). The class given is in vivo, rat (male Wistar). To be noted: 100 mg/kg, oral, 1 h before ethanol-hydrochloric acid; male Wistar rats fasted 24 h. As to the method: To male Wistar rats (weighing 150-200 g) fasted for 24 hours was administered orally an isoprenoid derivative of the invention. One hour later, ethanol-hydrochloric acid (containing 150 mM hydrochloric acid in 60% ethanol) was orally given in a volume of 0.5 ml/100 g bodyweight.
One hour later, the animals were sacrificed with ether. The stomach was excised and, after formalin treatment, measured for the length (mm) of lesions developed in glandular portions of the stomach. Total length of the lesions per animal was taken as ulcer index.
Percent inhibition of ulceration as referred to in the table is a value indicating the ulcer index for the rat without an isoprenoid derivative of the invention orally given minus the ulcer index for the orally administered rat divided by the ulcer index for the orally non-administered rat multiplied by 100.

In assay [3] the target is T1, 5-lipoxygenase. Description: 5-Lipoxygenase-inhibiting activity (Test Example 2, radiolabeled arachidonic acid, TLC of 5-HETE). To be noted: RBL-1 cell supernatant, pH 7.4, 37° C., 15 min, radio-TLC of 5-HETE, read-out: 50% Inhibitory concentration. The class given is biochemical. The method, then:
A suspension of rat-origin basophilic leukemia cell strain RBL-1 in an Eagle basal medium (manufactured by Gbco Laboratories) containing 10 % FCS is cultivated in a 5% CO2 incubator at 37° C. The culture is then centrifuged at 4° C. to collect cells. The cells are re-suspended in a phosphate buffer solution at pH 7.4 to a cell density of 1.0 -3.0×10^7 cells/ml. The suspended cells are treated by an ultrasonic cell blender and then centrifuged at 15,000 rpm at 4° C. for 30 min. The supernant is employed as an enzyme solution of a 5-lipoxygenase. In test tubes are placed 20 μl of radiolabeled arachidonic acid (10 μl Ci/ml) and an isoprenoid derivative of the invention to be tested. To each of the test tubes are added 0.40 ml of phosphate buffer, 0.10 ml of the enzyme solution as prepared above and […] of a 100 mM CaCl2 (calcium chloride). The mixture is allowed to react at 37° C. for 15 min. To the reaction mixture, after ice-cooling, is added one drop of 1N HCl (hydrochloric acid), and the resulting mass is extracted with 2 ml of ethyl acetate. The extract is concentrated, and the concentrate is spotted and developed on a silica gel thin layer plate (Merck 60F254). Measurement of the inhibitory activity is accomplished by collecting the portion corresponding to 5-HETE (5-(s)-hydroxy-6,8,11,14-eicosatetraenoic acid), a 5-lipoxygenase product detected by a radio-thin layer chromatogram scanner (Dunnschicht-Scanner II LB2723, manufactured by Berthold) and measuring radioactivity by a liquid scintillation counter. The 5-lipoxygenase-inhibiting activity is determined by decrease in the production of said 5-lipoxygenase product.
as §1

From patent US5130483A, “Isoprenoid derivatives and pharmaceutical preparations containing the same” (Terumo Kabushiki Kaisha, priority 1987, dated 1992) come the findings set out here.

`COc1cc(/C=C/C=C/C(=O)CCC=C(C)C)ccc1O` [Example 1, 1-(4'-hydroxy-3'-methoxyphenyl)-9-methyl-1,3,8-decatrien-5-one]: the IC50 at 5-lipoxygenase [1] stood at 500 nM. For the same molecule, in assay [2], the “Percent inhibition of ulceration” value came to 79.3%.
On the same counts, the results for `COc1cc(/C=C/C=C/C(=O)CC/C=C(\C)CCC=C(C)C)ccc1O` [Example 2, 9,13-dimethyl-1-(4'-hydroxy-3'-methoxyphenyl)-1,3,8,12-tetradecatetraen-5-one] are 380 nM and 94.6%.
The matching figures for `COc1cc(/C=C/C=C/C(=O)CC/C=C(\C)CC/C=C(\C)CCC=C(C)C)ccc1O` [Example 3, 1-(4'-hydroxy-3'-methoxyphenyl)-9,13,17-trimethyl-1,3,8,12,16-octadecapentaen-5-one]: 800 nM and 85.0%.
With `CC(C)=CCCC(=O)/C=C/c1ccc(O)c(O)c1` [Example 4, 1-(3',4'-dihydroxyphenyl)-7-methyl-1,6-octadien-3-one], the IC50 at 5-lipoxygenase [1] came out at 80 nM.
On to `COc1cc(/C=C/C(=O)OCC=C(C)C)ccc1O` [Example 5, prenyl 4-hydroxy-3-methoxycinnamate], for which the IC50 on 5-lipoxygenase [3] was determined as 3000 nM.
`COc1cc(/C=C/C=C/C(=O)OCC=C(C)C)ccc1O` [Example 6, prenyl 5-(3-methoxy-4-hydroxyphenyl)-2,4-pentadienoate]: the IC50 at 5-lipoxygenase [3] was 400 nM.
`CC(C)=CCOC(=O)/C=C/C=C/c1ccc(O)c(O)c1` [Example 7, prenyl 5-(3,4-dihydroxyphenyl)-2,4-pentadienoate]: the IC50 on 5-lipoxygenase [3] was determined as 26 nM.
Still for that read-out and setting: as for `COc1cc(/C=C/C=C/C(=O)OC/C=C(\C)CCC=C(C)C)ccc1O` [Example 8, geranyl 5-(4-hydroxy-3-methoxyphenyl)-2,4-pentadienoate], the figure is 1200 nM.
Same read-out and setting: as for `CC(C)=CCC/C(C)=C/COC(=O)/C=C/C=C/c1ccc(O)c(O)c1` [Example 9, geranyl 5-(3,4-dihydroxyphenyl)-2,4-pentadienoate], the figure is 260 nM.
Still for that read-out and setting: as for `COc1cc(/C=C/C=C/C(=O)NCC=C(C)C)ccc1O` [Example 11, 5-(4'-hydroxy-3'methoxyphenyl)pentadienoic acid prenylamide], the figure is 650 nM.
For `COc1cc(/C=C/C=C/C(=O)NC/C=C(\C)CCC=C(C)C)ccc1O` [Example 12, 5-(4'-hydroxy-3-methoxyphenyl)pentadienoic acid geranylamide], at 5-lipoxygenase [3], the IC50 amounted to 83 nM.
Same read-out and setting: the value for `COc1cc(/C=C/C=C/C(=O)NC/C=C(\C)CC/C=C(\C)CCC=C(C)C)ccc1O` [Example 13, 5-(4'-hydroxy3'-methoxyphenyl)pentadienoic acid (E,E)-farnesylamide] was 310 nM; that for `COc1cc(/C=C/C(=O)NC/C=C(\C)CCC=C(C)C)ccc1O` [Example 14, 4-hydroxy-3-methoxycinnamic acid geranylamide] was 920 nM.
Same read-out and setting: as for `CC(C)=CCC/C(C)=C/CNC(=O)/C=C/C=C/c1ccc(O)c(O)c1` [Example 15, 5-(3',4'-dihydroxyphenyl)pentadienoic acid geranylamide], the figure is 11 nM.
